# Measured values as given in patent publication US20060276372A1, “Carotenoids, carotenoid analogs, or carotenoid derivatives for the treatment of proliferative disorders” (priority 2005, published 2006).
# Read-outs that look alike come from different tables or passages of the source.
# Tests used:
# [1] = system: human prostate cancer cells; conditions: cited from earlier work
# [2] = system: Connexin43 (Cx43); experiment: Relative Cx43 protein levels by Western blot in C3H10T1/2 cells (Example 3); type: cell-based; conditions: Mus musculus, C3H 10T1/2, 168 h, read-out: Fold induction of Cx43 expression
# From the text: Treatments/Compounds._TTNPB (Biomol, Plymouth Meeting, Pa.); stock 5×10^−6M in acetone, diluted 1:500 in culture media (final 10^−8 M in 0.2% acetone). Lycophyll (All-trans, 95% pure, Hawaii Biotech, Inc., Aiea, Hi.); stocks 10^−2 M and 10^−3 M in tetrahydroftiran (THF; Sigma, St. Louis, Mo.) diluted 1:1000 and stirred into culture media immediately before treatment (final 10^−5 M and 10^−6 M in 0.1% THF). Lycopene (92.7% pure, Chromadex, Inc., Santa Ana, Calif.); stocks 10^−2 M and 10^−3 M in tetrahydrofuran (Sigma, St. Louis, Mo.) diluted 1:1000 and stir into culture media immediately before treatment (final 10^−5 M and 10^−6 M in 0.1% THF). […]
# SDS-PAGE Electrophoresis, Transfer and Immunodetection. […] Lysates were sonicated and protein concentrations quantified using the BCA protein determination assay (Pierce, Rockford, Ill.). […] Protein standards were utilized to confirm molecular weight of detected protein (SeeBlue, Invitrogen, Carlsbad, Calif.). […] Cx43 protein was detected according to the manufacturer's instructions using the WesternBreeze Immunodetection Kit (Invitrogen, Carlsbad, Calif.) and a rabbit primary antibody reactive against the cytoplasmic tail of Cx43 (1:2000, Sigma, St. Louis, Mo.).
# Quantification of Relative Western Blot Cx43 Protein Levels. […]
# [3] = Determination of aqueous solubility/dispersibility; type: physicochemical; conditions: USP-purified water, 2 hours, supernatant by UV/Vis
# Description: (§1) Determination of aqueous solubility/dispersibility. 30.13 mg of 3 was added to 1 mL of USP-purified water. The sample was rotated for 2 hours, then centrifuged for 5 minutes. After centrifuging, solid was visible in the bottom of the tube. A 125-μL aliquot of the solution was then diluted to 25 mL. The sample was analyzed by UV/Vis spectroscopy at 436 nm, and the absorbance was compared to a standard curve compiled from 4 standards of known concentration. The concentration of the original supernatant was calculated to be 2.85 mg/mL and the absorptivity was 36.94 AU*mL/cm*mg. Slight error may have been introduced by the small size of the original aliquot.
# as §1, with “Next, 30.80” for “Determination of aqueous solubility/dispersibility. 30.13”, “9” for “3”, “UViis” for “UV/Vis”, “411” for “436”, “The concentration of the original supernatant was calculated to be 2.85 mg/mL and the absorptivity was 36.94 AU*mL/cm*mg.” left out
# Determination of aqueous solubility/dipsersibility of pAST. 23.70 mg of tetrasodium diphosphate astaxanthin was added to 1 ml of USP purified water. The mixture was stirred for 2 hours, and centrifuged for 5 minutes. The solution was diluted in water and analyzed by UV/vis spectroscopy at 480 nm and absorbance was compared to a standard curve compiled from 4 standards of known concentration.
# [4] = system: CX43 protein; experiment: CX43 protein expression in 10T1/2 cells by Western blotting (Example 1); type: cell-based, Mouse; conditions: 4 days
# Description: Cell lines and culture conditions. Mouse embryonic fibroblast 10T1/2 cells were cultured in Eagle's basal medium with Earle's salts supplemented with 4% fetal calf serum (Atlanta Biologicals, Norcross, Ga.), 25 μg/ml gentamicin sulfate (Sigma, St. Louis, Mo.), and passaged by trypsin/EDTA (Gibco Invitrogen, Carlsbad, Calif.) and maintained at 37° C. in a 5% CO2 atmosphere. The cells were allowed to grow until a monolayer was formed. The confluent cells were treated 7 days after seeding, unless otherwise indicated. dAST was prepared in a formulation of 20% EtOH and sterile water (0.2% final EtOH ) to minimize supramolecular aggregation, and the final concentration of EtOH in culture medium was 0.2%. CTX was dissolved in THF and added to media. TTNPB was dissolved in acetone (Sigma, St. Louis, Mo.) and cultures received a final acetone concentration of 0.1%.
# Analysis of CX43 protein expression. Expression of CX43 protein in 10T1/2 cells was assessed by Western blotting. 10T1/2 cell monolayers were treated with the indicated carotenoid derivatives or with retinoids (as a positive control for the modulation of CX43 expression) 7 days after seeding in 100 mm dishes (Fisher Scientific, Pittsburgh, Pa.). Fours days after the drug was added to the cells, the cells were harvested, total cellular protein was isolated and the total protein concentration thereof was determined using a commercially available Protein Assay Reagent kit (Pierce Chemical Co., Rockford, Ill.). 40 μg of total cellular protein was resolved on an SDS-PAGE gel, transferred to a nitrocellulose membrane, and analyzed by Western blotting using the NuPage Western blotting kit (Invitrogen, Carlsbad, Calif.). CX43 was detected using a rabbit polyclonal antibody (Zymed, San Francisco, Calif.) raised against a synthetic polypeptide corresponding to the C-terminal domain common to mouse, human and rat CX43. Equal protein loafing was verified by immunoblotting for GAPDH, the expression of which is unaffected by treatment with retinoids or carotenoids, using a rabbit polyclonal GAPDH antibody was also used (Zymed, San Francisco, Calif.). CX43 and GAPDH immunoreactive bands were visualized by chemiluminescence using an anti-rabbit HRP-conjugated secondary antibody (Pierce Chemical Co., Rockford, Ill.). Images were obtained by exposure to X-ray film as previously described and scanned for digital analysis on the Fluoro-S Imager (Bio-Rad, Richmond, Calif.).
# [5] = system: CX43; experiment: CX43 plaques by indirect immunofluorescence in 10T1/2 cells; type: cell-based, Mouse; conditions: 10^−6 M, 4 days
# Description: Analysis of CX43 protein by indirect immunofluorescence. Expression and assembly of CX43 into plaques was assessed by immunofluorescence staining essentially as described in Rogers et al, 1990, which is incorporated herein by reference. Briefly, confluent cultures of 10T1/2 cells were grown on Permanox plastic 4-chamber slides (Nalge Nunc International, Naperville, Ill.) and treated for 4 days as described above. Cells were fixed with −20° C. methanol overnight, washed in buffer, blocked in 1% bovine serum albumin (Sigma, St. Louis, Mo.) in PBS, incubated with the rabbit anti-CX43 antibody, and visualized with Alexa568 conjugated anti-rabbit secondary antibody (Molecular Probes, Eugene, Oreg.). Images were acquired with a Zeiss Axioplan microscope and a Roper Scientific cooled CCD camera.
# [6] = system: 10T1/2 cells; experiment: Gap junctional communication, scrape-loading dye transfer assay; type: cell-based, Mouse; conditions: 7 days
# Description: Gap junctional communication assay. Junctional permeability was assayed by the scrape-loading dye transfer assay essentially as described in El-Fouly et al., 1987, which is incorporated herein by reference. Briefly, confluent cultures of 10T1/2 cells grown in 60 mm dishes were treated with the indicated compounds for 7 days. The treated cells were washed with Ca^+2-free phosphate-buffered saline (PBS). 1.5 ml of Lucifer Yellow CH (Sigma, St. Louis, Mo.) 0.2% in PBS was then added, and linear cuts were made on the monolayer using a surgical scalpel. The cultures were incubated for 2 minutes at 37° C. then rinsed thoroughly with PBS. The cultures were then fixed with 2 ml of 5% formaldehyde in PBS. Images were digitally quantitated by intensity thresholding using the SigmaScan software program (Jandel Scientific, San Rafael, Calif.).
# [7] = system: 10T1/2 cells; type: cell-based, Mouse; conditions: for % Inhibition of MCA-induced transformation: 4 week period; for Foci/dish (mean Type II + Type III foci, 24 dishes): 4 week period after MCA
# Description: Inhibition of MCA-induced neoplastic transformation in 10T1/2 cells. Cells were initiated with methylcholanthrene (MCA) […] (Sigma, St. Louis, Mo.) in acetone for 24 hours. Potential inhibitors of neoplastic transformation were added 7 days after removal of carcinogen as indicated and were renewed weekly by adding fresh medium supplemented with the appropriate drug for four weeks after removal of the carcinogen. The cultures were fixed and stained as described above. A total of 24 dishes of cells were used per treatment group. Type II and III foci were identified and then quantitated as described in Bertram et al., 1990, which is incorporated herein by reference.
# Statistical analysis. Transformation data was analyzed by one-tailed, two-sample t-tests that incorporated unequal variances. The scrape-loading data was analyzed by paired t-tests.
structure (smiles),measurement,setting,value
CC(C)c1ccc2c(c1)c(SC(C)(C)C)c(CC(C)(C)C(=O)O)n2Cc1ccc(Cl)cc1 [MK886],apoptosis of prostate cancer cells,[1]; Ghosh et al.,massive apoptosis
same,cells in culture killed,[1]; concentration of 10 mM,more than 90%
"CC(C)=CCC/C(C)=C/C=C/C(C)=C/C=C/C(C)=C/C=C/C=C(C)/C=C/C=C(C)/C=C/C=C(\C)CCC=C(C)C [lycopene, reference compound]",fold induction at 1 µM,[2],1.55
same,fold induction at 10 µM,[2],1.51
"CC1=C(/C=C/C(C)=C/C=C/C(C)=C/C=C/C=C(C)/C=C/C=C(C)/C=C/C2=C(C)C(=O)C(OP(=O)([O-])[O-])CC2(C)C)C(C)(C)CC(OP(=O)([O-])[O-])C1=O.[Na+].[Na+].[Na+].[Na+] (stereo not shown) [pAST, tetrasodium diphosphate astaxanthin]",aqueous solubility/dispersibility,[3],25.21 mg/mL
same,CX43 protein induction versus solvent-treated controls,[4]; 10^−5 M,no change
same,CX43 protein induction versus solvent-treated controls,[4]; 10^−6 M,about 5 fold
same,CX43 protein induction versus solvent-treated controls,[4]; 10^−7 M,~2 fold
same,CX43 immunoreactive plaques at regions of cell/cell apposition,[5],increased the prevalence of CX43 immunoreactive plaques
same,increase of GJIC (dye transfer) over untreated control cultures,[6]; 10^−9 M,approximately 4 fold
same,relative amount of GJIC over concentration range,[6]; concentrations ranging from 10^−10 to 10^−6 M,remained constant over a 4-log concentration range
same,"cumulative toxicity, monolayer formation",[7]; 10^−5 M for 4 weeks,failed to form complete monolayers
same,neoplastic transformation,[7]; 10^−5 M for 4 weeks,strongly inhibited
same,% Inhibition of MCA-induced transformation,[7]; 10^−6 M,100%
same,"Foci/dish (mean Type II + Type III foci, 24 dishes)",[7]; 10^−6 M,No foci
same,"Foci/dish (mean Type II + Type III foci, 24 dishes)","[7]; 10^−6 M, listed as drawing 75",0 foci/dish
same,% Inhibition of MCA-induced transformation,[7]; 10^−7 M,44%
same,"Foci/dish (mean Type II + Type III foci, 24 dishes)",[7]; 10^−7 M,substantially lowered levels of neoplastic transformation
same,"Foci/dish (mean Type II + Type III foci, 24 dishes)","[7]; 10^−7 M, listed as drawing 75",0.91 foci/dish
same,% Inhibition of MCA-induced transformation,[7]; 10^−8 M,36%
same,"Foci/dish (mean Type II + Type III foci, 24 dishes)",[7]; 10^−8 M,substantially lowered levels of neoplastic transformation
same,"Foci/dish (mean Type II + Type III foci, 24 dishes)","[7]; 10^−8 M, listed as drawing 75",1.04 foci/dish
